Source: patent US8912169B2, “Beta-lactamase inhibitors” (VenatoRx Pharmaceuticals, Inc., priority 2012, dated 2014)
Where two headings read alike, the source gives them in different places.

Experiments:
P. aerug. Ps296 VIM-2 = assay: broth microdilution MIC, P. aeruginosa VIM-2; type: cell-based; settings: for MIC of exemplary compounds in presence of fixed β-lactams, P. aerug. Ps296 VIM-2: Fixed Mero 4 μg/mL
From the text: (§1) To determine the ability of test compounds to potentiate the inhibition of the growth of bacterial strains that produce beta-lactamase enzymes, classic cell based broth microdilution MIC assays were employed. Six bacteria strains producing beta-lactamase enzymes were used: E. coli expressing the Class A Extended Spectrum Beta-Lactamase (ESBL) CTX-M-15, E. cloacae expressing the Class C P99, K. pneumoniae expressing the Class A carbapenemase KPC-3, P. aeruginosa expressing the Class B carbapenemase VIM-2, K. pneumoniae expressing the class A carbapenemase KPC-2 and the class B carbapenemase VIM-4, and S. aureus producing the Class A penicillinase PC-1. The assay was conducted in Cation Adjusted Mueller Hinton Broth (CAMHB, BD #212322, BD Diagnostic Systems, Sparks, Md.). Bacteria strains were grown for 3-5 hours in CAMBH broth. Test compounds were added to a microtiter plate in 2-fold serial dilutions in CAMHB in a final concentration range of 32 μg/mL to 0.25 μg/ml. An overlay of CAMHB containing a Beta-lactam was added to the compounds at a final static concentration of 4 μg/ml. […] In addition to the titration of test compounds the MICs of a panel of control beta-lactams is also tested to ensure the strains are behaving consistently from test to test. Once the test compound and antibiotics are added the plates can be inoculated according to CLSI broth microdilution method. After inoculation the plates are incubated for 16-20 hours at 37° C. then the Minimal Inhibitory Concentration (MIC) of the test compound is determined visually.
Using the methodology described above in EXAMPLE III, exemplary compounds for Formula I or Formula Ia were evaluated for their ability to inhibit the growth of β-lactamase producing bacteria in the presence of a β-lactam antibiotic.
Representative results are shown in Table 4 where A represents an MIC of the fixed β-lactam antibiotic in the presence of >32 μg/mL of a β-lactamase inhibitor of exemplary compounds, B represents the MIC in the presence of between 8 and 32 μg/mL of a β-lactamase inhibitor of exemplary compounds, and C represents the MIC in the presence of ≦4 μg/mL of a β-lactamase inhibitor of exemplary compounds. NT=Not Tested.

p99 AmpC = biological target: T1, p99 AmpC (Enterobacter cloacae, UniProt P05364); assay: β-lactamase enzyme inhibition, p99 AmpC; type: biochemical
T1 construct: made in house; host or cells: E. coli BL21(DE3)
Method in brief: (§2)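 Native untagged β-lactamases expressed in E. coli BL21(DE3) and purified, then pre-incubated with inhibitor 15 min at 37 °C. Hydrolysis was followed by absorbance: 100 μM nitrocefin at 486 nm for p99 AmpC and OXA-1; imipenem at 300 nm for KPC-2; cefotaxime at 260 nm for SHV-5. IC50 from initial-rate inhibition versus uninhibited controls.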

E. coli ESBL4 CTX-M-15 = assay: broth microdilution MIC, E. coli CTX-M-15; type: cell-based; settings: Fixed CAZ 4 μg/mL
From the text: as §1
(§3) Using the methodology described above in EXAMPLE III, exemplary compounds for Formula I or Formula Ia were evaluated for their ability to inhibit the growth of β-lactamase producing bacteria in the presence of a β-lactam antibiotic. […]

SHV-5 = biological target: T2, SHV-5 (Klebsiella pneumoniae, UniProt P0A3M1); assay: β-lactamase enzyme inhibition, SHV-5; type: biochemical
T2 construct: made in house; host or cells: E. coli BL21(DE3)
Method in brief: as §2

K.P. 156319 KPC-3 = assay: broth microdilution MIC, K. pneumoniae KPC-3; type: cell-based; settings: Fixed Mero 4 μg/mL
From the text: as §1, §3

KPC-2 = biological target: T3, KPC-2 (Klebsiella pneumoniae, UniProt Q9F663); assay: β-lactamase enzyme inhibition, KPC-2; type: biochemical; settings: substrate imipenem, 300 nm; read-out: Class A KPC-2 IC50
T3 construct: made in house; host or cells: E. coli BL21(DE3)
Method in brief: as §2

OXA-1 = biological target: T4, OXA-1 (Escherichia coli, UniProt P13661); assay: β-lactamase enzyme inhibition, OXA-1; type: biochemical; settings: substrate Nitrocefin 100 μM, 486 nm; read-out: Class D OXA-1 IC50
T4 construct: made in house; host or cells: E. coli BL21(DE3)
Method in brief: as §2

VIM-2 = biological target: T5, VIM-2 (Escherichia coli, UniProt Q5U7L7); assay: β-lactamase enzyme inhibition, VIM-2; type: biochemical; settings: substrate Nitrocefin 100 μM, 486 nm; read-out: Class B VIM-2 IC50
T5 construct: made in house; host or cells: E. coli BL21(DE3)
Method in brief: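 Purified VIM-2 (Q sepharose, 50 mM Hepes pH 7.5, >90% purity) preincubated with inhibitor 15 min at 37° C, then nitrocefin added at 100 μM final. Hydrolysis followed at 486 nm for 10 min; IC50 from initial rates versus inhibitor-free control wells.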

E. cl. 144200 p99 AmpC = assay: broth microdilution MIC, E. cloacae P99; type: cell-based; settings: Fixed CAZ 4 μg/mL
From the text: as §1, §3

K.P. A-1797 KPC-2 VIM-4 = assay: broth microdilution MIC, K. pneumoniae KPC-2 and VIM-4; type: cell-based; settings: Fixed Mero 4 μg/mL
From the text: as §1, §3

[1] = substrate Nitrocefin 100 μM, 486 nm, read-out: Class C AmpC IC50
[2] = substrate Cefotaxime, 260 nm, read-out: Class A SHV-5 IC50

Molecule	MIC of exemplary compounds in presence of fixed β-lactams, P. aerug. Ps296 VIM-2 (P. aerug. Ps296 VIM-2)	IC50 (p99 AmpC; [1]) [nM]	MIC of exemplary compounds in presence of fixed β-lactams, E. coli ESBL4 CTX-M-15 (E. coli ESBL4 CTX-M-15)	IC50 (SHV-5; [2]) [nM]	MIC of exemplary compounds in presence of fixed β-lactams, K.P. 156319 KPC-3 (K.P. 156319 KPC-3)	IC50 (KPC-2) [nM]	IC50 (OXA-1) [nM]	IC50 (VIM-2) [nM]	MIC of exemplary compounds in presence of fixed β-lactams, E. cl. 144200 p99 AmpC (E. cl. 144200 p99 AmpC)	MIC of exemplary compounds in presence of fixed β-lactams, K.P. A-1797 KPC-2 VIM-4 (K.P. A-1797 KPC-2 VIM-4)	MIC (P. aerug. Ps296 VIM-2; Pseudomonas aeruginosa, partner antibiotic alone, P. aeruginosa expressing VIM-2) [µg/mL]	IC50 (p99 AmpC) [nM]	IC50 (SHV-5) [nM]
(3R)-3-[[(3S,4S)-3,4-diaminocyclopentanecarbonyl]amino]-2-hydroxy-3,4-dihydro-1,2-benzoxaborinine-8-carboxylic acid and (3R)-3-[[(3R,4R)-3,4-diaminocyclopentanecarbonyl]amino]-2-hydroxy-3,4-dihydro-1,2-benzoxaborinine-8-carboxylic acid [Example 19]	C (C represents the MIC in the presence of ≦4 μg/mL of a β-lactamase inhibitor of exemplary compounds)	< 100	C (C represents the MIC in the presence of ≦4 μg/mL of a β-lactamase inhibitor of exemplary compounds)	100 to 1000	C (C represents the MIC in the presence of ≦4 μg/mL of a β-lactamase inhibitor of exemplary compounds)	< 100	< 100	< 100	C (C represents the MIC in the presence of ≦4 μg/mL of a β-lactamase inhibitor of exemplary compounds)	C (C represents the MIC in the presence of ≦4 μg/mL of a β-lactamase inhibitor of exemplary compounds)	–	–	–
(3R)-3-[[(1S,3S,4S)-3,4-diaminocyclohexanecarbonyl]amino]-2-hydroxy-3,4-dihydro-1,2-benzoxaborinine-8-carboxylic acid and (3R)-3-[[(1R,3R,4R)-3,4-diaminocyclohexanecarbonyl]amino]-2-hydroxy-3,4-dihydro-1,2-benzoxaborinine-8-carboxylic acid [Example 20]	C (C represents the MIC in the presence of ≦4 μg/mL of a β-lactamase inhibitor of exemplary compounds)	< 100	C (C represents the MIC in the presence of ≦4 μg/mL of a β-lactamase inhibitor of exemplary compounds)	1000 to 10000	C (C represents the MIC in the presence of ≦4 μg/mL of a β-lactamase inhibitor of exemplary compounds)	100 to 1000	100 to 1000	< 100	C (C represents the MIC in the presence of ≦4 μg/mL of a β-lactamase inhibitor of exemplary compounds)	B (B represents the MIC in the presence of between 8 and 32 μg/mL of a β-lactamase inhibitor of exemplary compounds)	–	–	–
C[C@@H](O)[C@H]1C(=O)N2C(C(=O)O)=C(S[C@@H]3CN[C@H](C(=O)N(C)C)C3)[C@H](C)[C@H]12 [Meropenem, reference compound]	–	–	–	–	–	–	–	–	–	–	16	–	–
NCC1CCC(CC(=O)N[C@H]2Cc3cccc(C(=O)O)c3OB2O)(C[N+](=O)[O-])CC1 (stereo partly drawn) [Example 12, (R)-3-(2-(4-(aminomethyl)-1-(nitromethyl)cyclohexyl)acetamido)-2-hydroxy-3,4-dihydro-2H-benzo[e][1,2]oxaborinine-8-carboxylic acid]	–	–	–	–	–	100 to 1000	100 to 1000	1000 to 10000	–	–	–	< 100	100 to 1000
N[C@H]1CC[C@H](C(=O)N[C@H]2Cc3cccc(C(=O)O)c3OB2O)CC1 [Example 2, (R)-3-(trans-4-aminocyclohexanecarboxamido)-2-hydroxy-3,4-dihydro-2H-benzo[e][1,2]oxaborinine-8-carboxylic acid]	–	–	–	–	–	100 to 1000	100 to 1000	100 to 1000	–	–	–	< 100	10000 to 100000
CN(C)[C@H]1CC[C@H](CC(=O)N[C@H]2Cc3cccc(C(=O)O)c3OB2O)CC1 [Example 14, (R)-3-(2-(trans-4-(dimethylamino)cyclohexyl)acetamido)-2-hydroxy-3,4-dihydro-2H-benzo[e][1,2]oxaborinine-8-carboxylic acid]	–	–	–	–	–	< 100	< 100	100 to 1000	–	–	–	< 100	< 100
O=C(C[C@H]1CC[C@H](NCCN(CC2CC2)CC2CC2)CC1)N[C@H]1Cc2cccc(C(=O)O)c2OB1O [Example 75, (R)-3-(2-(trans-4-(2-(bis(cyclopropylmethyl)amino)ethylamino)cyclohexyl)acetamido)-2-hydroxy-3,4-dihydro-2H-benzo[e][1,2]oxaborinine-8-carboxylic acid]	–	–	–	–	–	< 100	< 100	< 100	–	–	–	< 100	< 100
C[C@H](N)CN[C@H]1CC[C@H](CC(=O)N[C@H]2Cc3cccc(C(=O)O)c3OB2O)CC1 [Example 53, (R)-3-(2-(trans-4-((S)-2-aminopropylamino)cyclohexyl)acetamido)-2-hydroxy-3,4-dihydro-2H-benzo[e][1,2]oxaborinine-8-carboxylic acid]	–	–	–	–	–	< 100	< 100	< 100	–	–	–	< 100	< 100
CNCCN[C@H]1CC[C@H](C(CO)C(=O)N[C@H]2Cc3cccc(C(=O)O)c3OB2O)CC1 (stereo partly drawn) [Example 64, (R)-2-hydroxy-3-(3-hydroxy-2-(trans-4-(2-(methylamino)ethylamino)cyclohexyl)propanamido)-3,4-dihydro-2H-benzo[e][1,2]oxaborinine-8-carboxylic acid]	–	–	–	–	–	100 to 1000	< 100	< 100	–	–	–	< 100	< 100
NCC(N)[C@H]1CC[C@H](CC(=O)N[C@H]2Cc3cccc(C(=O)O)c3OB2O)CC1 (stereo partly drawn) [Example 77, (R)-3-(2-(trans-4-(1,2-diaminoethyl)cyclohexyl)acetamido)-2-hydroxy-3,4-dihydro-2H-benzo[e][1,2]oxaborinine-8-carboxylic acid]	–	–	–	–	–	100 to 1000	< 100	100 to 1000	–	–	–	< 100	< 100
N[C@H](CO)CN[C@H]1CC[C@H](CC(=O)N[C@H]2Cc3cccc(C(=O)O)c3OB2O)CC1 [Example 67, (R)-3-(2-(trans-4-((S)-2-amino-3-hydroxypropylamino)cyclohexyl)acetamido)-2-hydroxy-3,4-dihydro-2H-benzo[e][1,2]oxaborinine-8-carboxylic acid]	–	–	–	–	–	< 100	< 100	100 to 1000	–	–	–	< 100	< 100
O=C(CC1CCC(N2CCOCC2)CC1)N[C@H]1Cc2cccc(C(=O)O)c2OB1O (stereo partly drawn) [Example 40, (R)-2-hydroxy-3-(2-(4-morpholinocyclohexyl)acetamido)-3,4-dihydro-2H-benzo[e][1,2]oxaborinine-8-carboxylic acid]	–	–	–	–	–	< 100	< 100	< 100	–	–	–	< 100	100 to 1000
